{"source": "patent US20230037975A1", "about": "“USE OF C[…] IN ORAL CARE COMPOSITIONS TO INHIBIT THE GROWTH OF P. GINGIVALIS” (Demetrix, Inc., priority 2021, published 2023)", "test_system": "Porphyromonas gingivalis", "experiment": "minimum inhibitory concentration (MIC) assay against P. gingivalis", "assay_type": "cell-based", "description": "To determine the ability of the cannabinoid compounds described herein to reduce, or eliminate, P. gingivalis a minimum inhibitory concentration (“MIC”) assay was performed. The assay was performed by Charles River Laboratories International (Wilmington, Mass.) in accordance with industry standards.", "key": {"[1]": {"conditions": "Porphyromonas gingivalis; against P. gingivalis; Table 1; read-out: MIC"}, "[2]": {"conditions": "Porphyromonas gingivalis; read-out: minimum inhibitory concentration (MIC) against P. gingivalis"}, "[3]": {"conditions": "Porphyromonas gingivalis, read-out: minimum inhibitory concentration (MIC) against P. gingivalis"}}, "note": "Like-named read-outs stand apart in the source and are kept apart here."}
{"molecule": "CCCCCc1cc(O)c2c(c1)OC1(C)CCC3C1C2C3(C)C", "note": "(stereo not drawn) [CBL, cannabicyclol]", "values": [{"measurement": "MIC", "setting": "[1]", "result": "> 200", "unit": "µg/mL"}, {"measurement": "MIC", "setting": "[2]", "result": "> 200", "unit": "µg/mL"}]}
{"molecule": "(+)-cannabidiol [(+)-CBD]", "values": [{"measurement": "MIC", "setting": "against P. gingivalis; Table 1", "result": 0.78, "unit": "µg/mL"}]}
{"molecule": "CCCCCc1cc(O)c2c(c1)OC(C)(C)c1ccc(C)cc1-2", "note": "[CBN, cannabinol]", "values": [{"measurement": "MIC", "setting": "[1]", "result": 3.12, "unit": "µg/mL"}, {"measurement": "MIC", "setting": "[2]", "result": 3.12, "unit": "µg/mL"}]}
{"molecule": "C=C(C)[C@@H]1CCC(C)=C[C@H]1c1c(O)cc(CCCCC)cc1O", "note": "[CBD, cannabidol]", "values": [{"measurement": "minimum inhibitory concentration (MIC) against P. gingivalis", "result": 3.125, "unit": "µg/mL"}, {"measurement": "MIC", "setting": "against P. gingivalis; Table 1", "result": 3.125, "unit": "µg/mL"}]}
{"molecule": "C=C(C)[C@@H]1CCC(C)=C[C@H]1c1c(O)cc(CCCCC)c(C(=O)O)c1O", "note": "[CBDA, cannabidiolic acid]", "values": [{"measurement": "MIC", "setting": "[3]", "result": "< 1", "unit": "µg/mL"}, {"measurement": "MIC", "setting": "[1]", "result": 0.39, "unit": "µg/mL"}]}
{"molecule": "CCCCCc1cc(O)c(C/C=C(\\C)CCC=C(C)C)c(O)c1C(=O)O", "note": "[CBGA, cannabigerolic acid]", "values": [{"measurement": "MIC", "setting": "[3]", "result": "< 1", "unit": "µg/mL"}, {"measurement": "MIC", "setting": "[1]", "result": "≤ 0.097", "unit": "µg/mL"}]}
{"molecule": "CCCc1cc(O)c(C/C=C(\\C)CCC=C(C)C)c(O)c1C(=O)O", "note": "[CBGVA, cannabigerovarinic acid]", "values": [{"measurement": "minimum inhibitory concentration (MIC) against P. gingivalis", "result": 25, "unit": "µg/mL"}, {"measurement": "MIC", "setting": "against P. gingivalis; Table 1", "result": 25, "unit": "µg/mL"}]}
{"molecule": "CCCCCc1cc(O)c2c(c1)OC(C)(CCC=C(C)C)C=C2", "note": "(stereo not drawn) [CBC, cannabichromene]", "values": [{"measurement": "MIC", "setting": "[1]", "result": 1.56, "unit": "µg/mL"}, {"measurement": "MIC", "setting": "[2]", "result": 1.56, "unit": "µg/mL"}]}
{"molecule": "CCCCCc1cc2c(c(O)c1C(=O)O)-c1cc(C)ccc1C(C)(C)O2", "note": "[CBNA, cannabinolic acid]", "values": [{"measurement": "minimum inhibitory concentration (MIC) against P. gingivalis", "result": 3.125, "unit": "µg/mL"}, {"measurement": "MIC", "setting": "against P. gingivalis; Table 1", "result": 3.125, "unit": "µg/mL"}]}
{"molecule": "CCCCCc1cc2c(c(O)c1C(=O)O)C=CC(C)(CCC=C(C)C)O2", "note": "(stereo not drawn) [CBCA, cannabichromenic acid]", "values": [{"measurement": "minimum inhibitory concentration (MIC) against P. gingivalis", "result": 3.125, "unit": "µg/mL"}, {"measurement": "MIC", "setting": "against P. gingivalis; Table 1", "result": 3.125, "unit": "µg/mL"}]}
{"molecule": "CCCCc1cc(O)c(CC=C(C)CCC=C(C)C)c(O)c1", "note": "[CBG-C4, cannabigerol butyl]", "values": [{"measurement": "minimum inhibitory concentration (MIC) against P. gingivalis", "result": 3.125, "unit": "µg/mL"}, {"measurement": "MIC", "setting": "against P. gingivalis; Table 1", "result": 3.125, "unit": "µg/mL"}]}
{"molecule": "CCCc1cc(O)c(C/C=C(\\C)CCC=C(C)C)c(O)c1", "note": "[CBGV, cannabigerivarin]", "values": [{"measurement": "minimum inhibitory concentration (MIC) against P. gingivalis", "result": 3.125, "unit": "µg/mL"}, {"measurement": "MIC", "setting": "against P. gingivalis; Table 1", "result": 3.125, "unit": "µg/mL"}]}
{"molecule": "CCCCc1cc(O)c(C/C=C(\\C)CCC=C(C)C)c(O)c1C(=O)O", "note": "[CBGA-C4, cannabigerolic acid butyl]", "values": [{"measurement": "minimum inhibitory concentration (MIC) against P. gingivalis", "result": 6.25, "unit": "µg/mL"}, {"measurement": "MIC", "setting": "against P. gingivalis; Table 1", "result": 6.25, "unit": "µg/mL"}]}
{"molecule": "CCCCCc1cc(O)c(C/C=C(\\C)CCC=C(C)C)c(O)c1", "note": "[CBG, cannabigerol]", "values": [{"measurement": "MIC", "setting": "[3]", "result": "< 1", "unit": "µg/mL"}, {"measurement": "MIC", "setting": "[1]", "result": 0.78, "unit": "µg/mL"}]}
{"molecule": "C=C(C)[C@@H]1CCC(C)=C[C@H]1c1c(O)cc(CCC)c(C(=O)O)c1O", "note": "[CBDVA, cannabidivarinic acid]", "values": [{"measurement": "minimum inhibitory concentration (MIC) against P. gingivalis", "result": 25, "unit": "µg/mL"}, {"measurement": "MIC", "setting": "against P. gingivalis; Table 1", "result": 25, "unit": "µg/mL"}]}
{"molecule": "C=C(C)[C@@H]1CCC(C)=C[C@H]1c1c(O)cc(CCC)cc1O", "note": "[CBDV, cannabidivarin]", "values": [{"measurement": "MIC", "setting": "[1]", "result": 3.12, "unit": "µg/mL"}, {"measurement": "MIC", "setting": "[2]", "result": 3.12, "unit": "µg/mL"}]}
{"molecule": "C=C(C)[C@@H]1CCC(C)=C[C@H]1c1c(O)cc(CC)cc1O", "note": "[CBD-C2, Cannabidol-C2]", "values": [{"measurement": "minimum inhibitory concentration (MIC) against P. gingivalis", "result": 6.25, "unit": "µg/mL"}, {"measurement": "MIC", "setting": "against P. gingivalis; Table 1", "result": 6.25, "unit": "µg/mL"}]}
{"molecule": "C=C(C)[C@@H]1CCC(C)=C[C@H]1c1c(O)cc(C)cc1O", "note": "[CBD-C1, Cannabidiorcol]", "values": [{"measurement": "minimum inhibitory concentration (MIC) against P. gingivalis", "result": 100, "unit": "µg/mL"}, {"measurement": "MIC", "setting": "against P. gingivalis; Table 1", "result": 100, "unit": "µg/mL"}]}
{"molecule": "C=C(C)[C@@H]1CCC(C)=C[C@H]1c1c(O)cc(CCCC)cc1O", "note": "[CBD-C4, cannabidol-C4]", "values": [{"measurement": "minimum inhibitory concentration (MIC) against P. gingivalis", "result": 3.125, "unit": "µg/mL"}, {"measurement": "MIC", "setting": "against P. gingivalis; Table 1", "result": 3.125, "unit": "µg/mL"}]}
{"molecule": "CCCCCc1cc2c(c(O)c1C(=O)O)C1C3C(CCC3(C)O2)C1(C)C", "note": "(stereo not drawn) [CBLA, cannabicyclolic acid]", "values": [{"measurement": "minimum inhibitory concentration (MIC) against P. gingivalis", "result": 3.125, "unit": "µg/mL"}, {"measurement": "MIC", "setting": "against P. gingivalis; Table 1", "result": 3.125, "unit": "µg/mL"}]}
